Results as given in patent US20070276037A1, “Cytoprotective Effects of Ethyl Pyruvate” (priority 2003, published 2007).

Legend:
[1] = system: left ventricular infarction; assay: Planimetric determination of left ventricular infarction size (TTC/Evans blue); type: in vivo, rat; settings: 30 minutes ischemia and 30 minutes reperfusion; n=15; mean ± SEM
[2] = system: ischemic myocardium; assay: Myocardial ATP levels (luciferin/luciferase bioluminescence) in acute in vivo ischemia-reperfusion model; design: species or system rat; settings: n=5
[3] = system: ischemic and nonischemic myocardium; assay: Myocardial lipid peroxidation measurements after ischemia and reperfusion; type: in vivo, rat
[4] = system: myocardial function; assay: Cardiac function over the course of induced ischemia and reperfusion, percentage of baseline (FIGS. 5-7); type: in vivo; settings: p<0.05
Protocol: In order to determine overall effects of ethyl pyruvate on cardiac function, a number of parameters were evaluated over the course of induced ischemia, and reperfusion, as a function of time.

[5] = system: myocardial function; assay: Cardiac functional assessment following ischemia and reperfusion (pressure/volume conductance catheter, flow probe); type: in vivo, rat
[6] = 30 min ischemia / 30 min reperfusion, n=6, FIG. 2, mean ± SEM
[7] = after 30 min ischemia / 30 min reperfusion, n=15
[8] = following ischemia and reperfusion, n=15, mean ± SEM, FIG. 8

SMILES: CCOC(=O)C(C)=O [ethyl pyruvate]
- Left ventricular area at risk infarcted (infarction area/area at risk) [1]: 25.3%±1.5
- ATP level in ischemic region of heart ([2]; 10 minutes after initiation of ischemia, 1.5 mL/kg iv bolus of 28 mmol/L ethyl pyruvate in Ringer's, mean ± SEM): 87.6 ± 29.2 nmol/g
- ATP levels versus controls ([2]; ischemic myocardium 10 minutes after initiation of ischemia, FIG. 1): Significantly higher levels of ATP
- Lipid peroxide level, ischemic myocardium [3, 6]: 63.8 ± 3.3 nmol/g
- Lipid peroxide level, nonischemic myocardium [3, 6]: 42.3 ± 4.8 nmol/g
- Lipid peroxide level, ischemic myocardium ([3]; n=5, FIG. 3, mean ± SEM): 70.4 ± 2.6 nmol/g
- Lipid peroxidation in ischemic myocardium versus control hearts ([3]; n=6, FIG. 2): decreased the level of lipid peroxidation
- Lipid peroxidation in remote nonischemic myocardium versus control ([3]; n=6, FIG. 2): equivalent
- dP/dtmax (contractility) as percentage of baseline, versus controls ([4]; after 8 minutes of ischemia and throughout reperfusion, FIG. 6): significantly greater
- Maximum left ventricular (LV) pressure as percentage of baseline, versus controls ([4]; throughout ischemia and reperfusion, FIG. 5): significantly greater
- Cardiac output as percentage of baseline, versus controls ([4]; throughout ischemia and reperfusion, FIG. 7): significantly greater
- Myocardial function (end systolic pressure volume relationships) versus control animals ([5]; FIG. 8): significantly improved myocardial function
- Cardiac output [5, 7]: 26.7 ± 0.9 mL/min
- Ejection fraction [5, 7]: 41.9 ± 3.8%
- Heart rate [5, 7]: 183 ± 9.5 bpm
- Maximum dP/dt [5, 7]: 3518 + 243 mm Hg/s
- Maximum pressure [5, 7]: 86.6 ± 2.9 mm Hg
- Minimum dP/dt [5, 7]: 2841 + 329 mm Hg/s
- ESPVR slope [5, 8]: 1.09±0.22
- ESPVR x-axis intercept (x-int) [5, 8]: 4.1±19.9
- Composite ESPVR ([5]; regression composite, n=15, FIG. 8): 1.08 (ESV-4.0B)
